The record followed here is ChEMBL document CHEMBL1201862, “PubChem BioAssay data set” (2004).

Test systems include DLD-1; SNB-78; XF498; M19-MEL; DMS-273; KM-20L2; DMS-114; HOP-18; RXF 631.
Common to all, as to assay: DTP human tumour cell line panel, 48 h

Structures are written as SMILES.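 The compound was tested at five concentrations on cells cultured in 96-well plates, with a 48-hour exposure period. The concentration for 50% growth inhibition is given as GI50.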 Calls of active or inactive are those of the source. Rule as the data show it: active = GI50 up to about 1.1 µM and inactive = higher. Some results are limits rather than exact numbers.

The GI50 is the concentration that inhibits growth by half. With `COc1ccc(CC2C(=O)NC(C)C(=O)N(C)C3Cc4ccc(cc4)Oc4cc(ccc4O)CC(C(=O)NC(C)C(=O)NC(C)C(=O)N2C)N(C)C3=O)cc1` (stereo not given), the GI50 with DLD-1 was 0.0469 µM (active); with SNB-78, 0.0175 µM (active); with XF498 it was 0.0175 µM (active); in the test with M19-MEL, 0.0175 µM (active); in the test with DMS-273 it was 0.0175 µM (active); in the test with KM-20L2, 0.0175 µM (active).

With `NC1CCCCC1.O=C(O)C1(P(=O)(O)O)CC1`, the GI50 with DLD-1, in the test with DMS-114, in the test with SNB-78, in the test on HOP-18, with XF498 and in the test with M19-MEL was > 100 µM (inactive) each time. Also, the GI50 with DMS-273 and with KM-20L2 was > 100 µM (inactive) each time.

Consider `CC(=O)OC1COC(n2c(=S)n(-c3ccc(C)cc3)c(=O)c3ccccc32)C(OC(C)=O)C1OC(C)=O` (stereo not given), for which the GI50 in the test on DLD-1 was > 100 µM (inactive); with RXF 631, 68.9 µM (inactive); with DMS-114 it was > 100 µM (inactive); in the test on SNB-78, > 100 µM (inactive); with HOP-18 it was > 100 µM (inactive); in the test on XF498 it was > 100 µM (inactive). For the same compound, the GI50 with M19-MEL, with DMS-273 and in the test with KM-20L2 was > 100 µM (inactive) each time.

Take `O=S(=O)(N/N=C/c1cccc(/C=N/NS(=O)(=O)c2ccccc2)c1)c1ccccc1`: the GI50 is 81.5 µM (inactive) with DLD-1; 73.8 µM (inactive) with RXF 631; 47.4 µM (inactive) in the test on DMS-114; > 100 µM (inactive) in the test on SNB-78; 91 µM (inactive) with HOP-18; > 100 µM (inactive) with M19-MEL. Also, the GI50 with DMS-273 and in the test with KM-20L2 was > 100 µM (inactive) each time.

For the compound `Cc1[nH]c2ccccc2c1-c1n[nH]c(=O)c2ccccc12`, the GI50 with DLD-1 was 15.9 µM (inactive); in the test on RXF 631 it was 13 µM (inactive); in the test with DMS-114, 14.8 µM (inactive); with SNB-78, 46.8 µM (inactive); in the test with XF498, 27.1 µM (inactive); in the test on M19-MEL, 29 µM (inactive). Moreover, the GI50 in the test on DMS-273 is 8.79 µM (inactive); in the test with KM-20L2, 25.2 µM (inactive).

In the case of `Cc1[nH]c2ccccc2c1C1Cc2ccccc2N1C(=O)/C(Cl)=C/c1ccccc1` (stereo not given), the GI50 in the test with DLD-1 is 74.3 µM (inactive); with RXF 631 it was > 100 µM (inactive); in the test with DMS-114 it was > 20.9 µM (inactive); in the test on SNB-78 it was 23.3 µM (inactive); in the test with HOP-18, 66.2 µM (inactive); with XF498, 12.4 µM (inactive). Moreover, the GI50 with M19-MEL, in the test on DMS-273 and in the test on KM-20L2 was > 100 µM (inactive) throughout.

On to `CCC1CCCCN1CC(C(C)=O)C(c1ccccc1)c1c(O)c2ccccc2oc1=O` (stereo not given), for which the GI50 with DLD-1, with RXF 631, with DMS-114, in the test on SNB-78, in the test with XF498 and in the test with M19-MEL was > 100 µM (inactive) each time. The GI50 in the test on DMS-273 and in the test on KM-20L2 was > 100 µM (inactive) throughout.

In the case of `CCOC(=O)/C=C1\CCCC12OCCO2`, the GI50 in the test on DLD-1 is 89.3 µM (inactive); in the test with DMS-114, 85.5 µM (inactive); in the test on SNB-78, > 100 µM (inactive); in the test on HOP-18 it was > 100 µM (inactive); in the test on M19-MEL it was > 100 µM (inactive); in the test with DMS-273, 53.5 µM (inactive). In the test with KM-20L2, the GI50 was > 100 µM (inactive).

Regarding `COc1cc(/C=C2/C(=O)N(C(=O)OCC(C)C)C(Cc3cc(OC)c(OC)c(C)c3OC)C(=O)N2Cc2ccccc2)c(OC)c(C)c1OC` (stereo not given), the GI50 was 84.3 µM (inactive) in the test on DLD-1; > 100 µM (inactive) with RXF 631; 23.1 µM (inactive) in the test with DMS-114; > 100 µM (inactive) in the test with HOP-18; > 100 µM (inactive) in the test with M19-MEL; > 100 µM (inactive) in the test on DMS-273. In addition, in the test with KM-20L2, the GI50 is > 100 µM (inactive).

As to `N#C/C(=C1\SC(C(N)=O)=C(N)N1c1ccccc1)c1nc2ccccc2[nH]1`, the GI50 in the test with DLD-1 was > 100 µM (inactive); in the test on DMS-114, > 100 µM (inactive); in the test on SNB-78, 44.4 µM (inactive); in the test with XF498 it was > 100 µM (inactive); in the test with M19-MEL, > 100 µM (inactive); in the test with DMS-273 it was > 100 µM (inactive). For the same compound, the GI50 in the test with KM-20L2 was > 100 µM (inactive).

On to `S=C1ON=C(c2ccccc2)/C1=C/Nc1ccccc1`, for which the GI50 is 37.2 µM (inactive) in the test on DLD-1; > 100 µM (inactive) with DMS-114; > 100 µM (inactive) with SNB-78; < 0.01 µM (active) in the test with HOP-18; > 100 µM (inactive) in the test with XF498; > 100 µM (inactive) with DMS-273.

For `O=c1c(C(c2ccc([N+](=O)[O-])cc2)c2c(O)c3ccccc3n(-c3ccccc3)c2=O)c(O)c2ccccc2n1-c1ccccc1`, the GI50 was 6.41 µM (inactive) with DLD-1; 14.7 µM (inactive) with RXF 631; 20.3 µM (inactive) in the test with DMS-114; 21.7 µM (inactive) in the test with SNB-78; 2.4 µM (inactive) in the test with HOP-18; 19.7 µM (inactive) with XF498. Moreover, the GI50 is 32.5 µM (inactive) with M19-MEL, 22.9 µM (inactive) in the test on DMS-273 and 27.2 µM (inactive) with KM-20L2.

As to `CNC(C)(C)Cc1ccc(Cl)cc1`, the GI50 in the test with DLD-1 is > 100 µM (inactive); in the test with DMS-114 it was > 100 µM (inactive); in the test on XF498, 34.7 µM (inactive); in the test with M19-MEL, > 100 µM (inactive); with KM-20L2 it was > 100 µM (inactive).

Turning to `CC(C)C(C(=O)O)N(CC1(O)OCC(O)C(O)C1O)N=O` (stereo not given), the GI50 in the test with DLD-1, in the test on RXF 631, in the test with DMS-114, in the test with SNB-78, in the test with XF498 and in the test with M19-MEL was > 100 µM (inactive) in each case. The GI50 with DMS-273 and in the test on KM-20L2 was > 100 µM (inactive) throughout.

Consider `CSc1nc2c(nc(N)n2C2OC(COC(C)=O)C(OC(C)=O)C(OC(C)=O)C2OC(C)=O)c(=O)n1C` (stereo not given), for which the GI50 in the test with DLD-1, in the test on RXF 631, with DMS-114, in the test on SNB-78, in the test on HOP-18 and in the test with XF498 was > 100 µM (inactive) in each case. For the same compound, the GI50 in the test with KM-20L2 is > 100 µM (inactive).

Regarding `Cc1cc(N(CCC#N)S(=O)(=O)c2ccccc2)ccc1C=O`, the GI50 with DLD-1, in the test on RXF 631, with DMS-114, in the test with SNB-78, in the test with HOP-18 and with DMS-273 was > 100 µM (inactive) each time. Also, the GI50 in the test on KM-20L2 is > 100 µM (inactive).

Consider `CC(C)(C)NCC(COc1ccc([N+](=O)[O-])cc1)OP(c1ccccc1)c1ccccc1` (stereo not given), for which the GI50 in the test with DLD-1 is 27.8 µM (inactive); in the test on DMS-114, 23 µM (inactive); in the test with SNB-78, 25.9 µM (inactive); with XF498 it was 22.5 µM (inactive); in the test on M19-MEL, 40.6 µM (inactive); in the test on DMS-273, 29.8 µM (inactive). In addition, in the test on KM-20L2, the GI50 was 36.4 µM (inactive).

Turning to `CN(C)CC1(C)CC/C(=C\c2ccc3c(c2)OCO3)C1=O` (stereo not given), the GI50 with DLD-1 is > 100 µM (inactive); with DMS-114, 57.4 µM (inactive); with SNB-78, > 100 µM (inactive); with HOP-18 it was > 100 µM (inactive); in the test on XF498 it was > 100 µM (inactive); with M19-MEL, > 100 µM (inactive). The GI50 with DMS-273 was > 100 µM (inactive); in the test on KM-20L2 it was 3.72 µM (inactive).

Consider `Clc1ccc2c(c1)-c1c3c(nn1-c1ccccc1)-c1ccccc1SC3O2` (stereo not given), for which the GI50 is 56.1 µM (inactive) in the test on DMS-114; > 100 µM (inactive) with SNB-78; > 100 µM (inactive) in the test on HOP-18; > 100 µM (inactive) with XF498; > 100 µM (inactive) in the test on M19-MEL; > 100 µM (inactive) with DMS-273. For the same compound, in the test with KM-20L2, the GI50 was > 100 µM (inactive).

In the case of `NC1CCC2(O)c3ccccc3C2C1` (stereo not given), the GI50 with DMS-114, in the test on SNB-78, in the test with HOP-18, in the test on XF498, in the test on M19-MEL and in the test with DMS-273 was > 100 µM (inactive) in each case. Also, in the test with KM-20L2, the GI50 is > 100 µM (inactive).

Take `Cc1ccc(/N=N/c2c(C)nn(-c3ccccc3)c2-c2ccccc2)c(Br)c1`: the GI50 with DLD-1 is 57.4 µM (inactive); with RXF 631 it was 34.4 µM (inactive); in the test with HOP-18, > 100 µM (inactive); in the test on M19-MEL, 55.1 µM (inactive); in the test on KM-20L2 it was > 100 µM (inactive).

Turning to `c1ccc2c(NCCCCCCNc3c4ccccc4nc4ccccc34)c3ccccc3nc2c1`, the GI50 in the test on DLD-1 was 0.291 µM (active); in the test with DMS-114 it was 0.366 µM (active); in the test on SNB-78, 0.498 µM (active); in the test on HOP-18 it was 2.91 µM (inactive); in the test with XF498, 1.41 µM (inactive); in the test with M19-MEL it was 1.09 µM (active). Moreover, the results for the GI50 in the test with DMS-273 and with KM-20L2 were 0.0214 µM (active) and 0.0785 µM (active), respectively.

As for `C[C@H](N)C(=O)N[C@@H]1[C@H]2C(=C(O)C[C@@H](O)[C@@H]2O)C(=O)O[C@]1(C)C(Cl)Cl` [BACTOBOLIN], the 50% growth inhibitory concentration (GI50) with DLD-1 is 0.24 µM (active); in the test with RXF 631, 0.289 µM (active); in the test with DMS-114, 0.178 µM (active); in the test on SNB-78 it was 0.281 µM (active); in the test with HOP-18, 0.57 µM (active); with XF498 it was 0.0938 µM (active). The figures for the GI50 with M19-MEL, with DMS-273 and in the test with KM-20L2 were 0.232 µM (active), 0.327 µM (active) and 0.262 µM (active), respectively.
